According to patent US10857230B2, “Co-therapy comprising a small molecule CSF-1R inhibitor and an agonistic antibody that specifically binds CD40 for the treatment of cancer” (Janssen Biotech, Inc., priority 2017, dated 2020):

System: MC38 murine colon carcinoma cells
Test: MC38 Tumor Size Assay (Example 1)
Type: in vivo, C57BL/6 mice
Conditions: for Median TTE: 61-day study
Procedure: The mice were housed on irradiated Enrich-o'Cobs™ bedding in static microisolators on a 12-hour light cycle at 20-22° C. (68-72° F.) and 40-60% humidity.
MC38 murine colon carcinoma cells were grown in Dulbecco's Modified Eagle Medium (DMEM) supplemented with 10% fetal bovine serum and 2 mM glutamine, 100 units/mL penicillin G sodium, 100 μg/mL streptomycin sulfate, and 25 μg/mL gentamicin.
The MC38 colon cells used for implantation were harvested during log phase growth and re-suspended in cold PBS. Mice were anesthetized with isoflurane prior to implantation. Each mouse was injected subcutaneously in the right flank with 1×10^6 tumor cells (0.1 mL cell suspension) and tumors were monitored as their volumes approached the target range of 350 to 500 mm^3. […] Tumors were measured with calipers twice weekly in two dimensions. Tumor size was calculated using the formula:
where w=width and l=length, in mm, of a tumor. Tumor weight was estimated with the assumption that 1 mg is equivalent to 1 mm^3 of tumor volume.
The compound of formula (I) was stored at room temperature and antibody stock solutions were stored at 4° C. upon receipt.
Each week of dosing, the compound of formula (I) was dissolved in 0.5% HPMC to yield a 1.0 mg/mL dosing solution. The dosing solution was stored at 4° C., protected from light. The rat IgG2a isotype and anti-CSF1R dosing solutions were prepared fresh each day by diluting aliquots of the stock solutions with PBS to yield 1.0 mg/mL dosing solutions. The dosing solutions were stored at 4° C., protected from light. The anti-mCD40 dosing solution was prepared fresh each day by diluting an aliquot of the stock solution with PBS to yield a 0.1 mg/mL dosing solution. The dosing solution was stored at 4° C., protected from light.
On Day 1 of the study, fourteen groups of C57BL/6 mice (n=10) began dosing according to the following protocol.
The vehicle (0.5% HPMC) and the compound of formula (I) were administered orally (p.o.). The rat IgG2a isotype control, anti-mCD40, and anti-CSF1R were administered intraperitoneally (i.p.). Rat IgG2a(2A3) was administered at […]. The compound of formula (I) and anti-CSF1R were administered at 10 mg/kg, and anti-mCD40 was administered at 1 mg/kg. The dosing volume for all animals was 10 mL/kg (0.2 mL per 20-g mouse) and was adjusted for body weight.
Tumors were measured using calipers twice per week. […] TGI (tumor growth inhibition) analysis was performed on Day 15. The MTV (n), the median tumor volume for the number of animals, n, on Day 15, was determined for each group. Percent tumor growth inhibition (% TGI) was defined as the difference between the MTV of the designated control group (Group 1) and the MTV of the drug-treated group, expressed as a percentage of the MTV of the control group: […]
The data set for TGI analysis included all animals in a group, except those that died due to treatment-related or non-treatment related causes
Animals were monitored individually for tumor growth until Day 61. The study protocol specified a tumor growth delay assay based on the median time-to-endpoint (TTE) in a treated group versus the control group. Each animal was marked for tumor progression (TP) when its tumor reached the 1500 mm^3 volume endpoint. The TTE for each mouse was calculated with the following equation: […]
where b is the intercept and m is the slope of the line obtained by linear regression of a log-transformed tumor growth data set. The data set comprised the first observation that exceeded the study endpoint volume and the three consecutive observations that immediately preceded the attainment of the endpoint volume. […] In instances in which the log-transformed calculated TTE preceded the day prior to reaching endpoint or exceeded the day of reaching tumor volume endpoint, a linear interpolation was performed to approximate TTE.

[1] = Groups 3-7: all dosing from Day 1 (antibodies i.p. Days 1, 5, 9, formula (I) p.o. bid×14), formula (I) and anti-CSF1R 10 mg/kg, anti-mCD40 1 mg/kg, vs rat IgG2a control Group 1
[2] = Groups 9, 11, 13, 14: formula (I) 10 mg/kg p.o. bid×14 beginning Day 4 or anti-CSF1R 10 mg/kg i.p. Days 4, 8, 12, in combinations anti-mCD40 1 mg/kg i.p. Days 1, 5, 9, vs rat IgG2a control Group 1
[3] = number of animals of n=10, Groups 3-7: all dosing from Day 1 (antibodies i.p. Days 1, 5, 9, formula (I) p.o. bid×14), formula (I) and anti-CSF1R 10 mg/kg, anti-mCD40 1 mg/kg
[4] = number of animals of n=10, Groups 9, 11, 13, 14: formula (I) 10 mg/kg p.o. bid×14 beginning Day 4 or anti-CSF1R 10 mg/kg i.p. Days 4, 8, 12, in combinations anti-mCD40 1 mg/kg i.p. Days 1, 5, 9

CC1(C)CC=C(c2nc(C3CC(C)(C)OC(C)(C)C3)ccc2NC(=O)c2nc(C#N)c[nH]2)CC1 [compound of formula (I), 4-cyano-N-(2-(4,4-dimethylcyclohex-1-en-1-yl)-6-(2,2,6,6-tetramethyltetrahydro-2H-pyran-4-yl)pyridin-3-yl)-1H-imidazole-2-carboxamide]
% TGI (Day 15, vs rat IgG2a control Group 1, Groups 3-7: all dosing from Day 1 (antibodies i.p. Days 1, 5, 9, formula (I) p.o. bid×14), formula (I) and anti-CSF1R 10 mg/kg, anti-mCD40 1 mg/kg): 21% | % TGI (Day 15, vs rat IgG2a control Group 1, Groups 9, 11, 13, 14: formula (I) 10 mg/kg p.o. bid×14 beginning Day 4 or anti-CSF1R 10 mg/kg i.p. Days 4, 8, 12, in combinations anti-mCD40 1 mg/kg i.p. Days 1, 5, 9): −24% | Median TTE (Groups 3-7: all dosing from Day 1 (antibodies i.p. Days 1, 5, 9, formula (I) p.o. bid×14), formula (I) and anti-CSF1R 10 mg/kg, anti-mCD40 1 mg/kg, 1500 mm^3 endpoint): 17.5 days | % TGD [1]: 17% | T − C [1]: 2.5 days | Median TTE (Groups 9, 11, 13, 14: formula (I) 10 mg/kg p.o. bid×14 beginning Day 4 or anti-CSF1R 10 mg/kg i.p. Days 4, 8, 12, in combinations anti-mCD40 1 mg/kg i.p. Days 1, 5, 9, 1500 mm^3 endpoint): 11.4 days | % TGD [2]: −24% | T − C [2]: -3.6 days | Regression CR [3]: 0 | Regression PR [3]: 0 | Regression CR [4]: 0 | Regression PR [4]: 0 | Regression TFS (tumor-free survivors Day 61, of n=10, Groups 3-7: all dosing from Day 1 (antibodies i.p. Days 1, 5, 9, formula (I) p.o. bid×14), formula (I) and anti-CSF1R 10 mg/kg, anti-mCD40 1 mg/kg): 0 | Regression TFS (tumor-free survivors Day 61, of n=10, Groups 9, 11, 13, 14: formula (I) 10 mg/kg p.o. bid×14 beginning Day 4 or anti-CSF1R 10 mg/kg i.p. Days 4, 8, 12, in combinations anti-mCD40 1 mg/kg i.p. Days 1, 5, 9): 0
